# From PubChem BioAssay (NCI)
#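 Values below derive from 48-hour exposures of cells grown in 96-well plates, with endpoints linearly interpolated between the two concentrations bracketing the appropriate inhibition level. At the GI50, growth is halved. TGI denotes the concentration required for complete inhibition of growth.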
# How the values were obtained:
# Test in all cases: inhibition of tumour cell growth, NCI panel, 48 h
# RPMI-8226 leukemia = test system: RPMI-8226 leukemia
# UACC-257 melanoma = test system: UACC-257 melanoma
# A498 renal = test system: A498 renal
# 786-0 renal = test system: 786-0 renal
# SNB-75 CNS = test system: SNB-75 CNS
# NCI-H23 lung = test system: NCI-H23 lung
# HCC-2998 colon = test system: HCC-2998 colon
# SNB-19 CNS = test system: SNB-19 CNS
# T-47D breast = test system: T-47D breast
# UO-31 renal = test system: UO-31 renal
# K-562 leukemia = test system: K-562 leukemia
# EKVX NSCLC = test system: EKVX NSCLC
# KM12 colon = test system: KM12 colon
# HCT-15 colon = test system: HCT-15 colon
# HOP-92 NSCLC = test system: HOP-92 NSCLC
# NCI-H522 lung = test system: NCI-H522 lung
# SF-268 CNS = test system: SF-268 CNS
# RXF 393 renal = test system: RXF 393 renal
# UACC-62 melanoma = test system: UACC-62 melanoma
# MDA-MB-231 breast = test system: MDA-MB-231 breast
# SF-539 CNS = test system: SF-539 CNS
# SK-MEL-5 melanoma = test system: SK-MEL-5 melanoma
# OVCAR-5 ovarian = test system: OVCAR-5 ovarian
# OVCAR-3 ovarian = test system: OVCAR-3 ovarian
# CAKI-1 renal = test system: CAKI-1 renal
# HS 578T breast = test system: HS 578T breast
# CCRF-CEM leukemia = test system: CCRF-CEM leukemia
# NCI-H226 lung = test system: NCI-H226 lung
# ACHN renal = test system: ACHN renal
structure (smiles),measurement,setting,value
C[n+]1c(-c2ccccc2)c2cc(N)ccc2c2ccccc21,TGI,RPMI-8226 leukemia,9.75 µM
same,GI50,UACC-257 melanoma,4.73 µM
same,TGI,UACC-257 melanoma,> 100 µM
same,GI50,A498 renal,19.6 µM
same,TGI,A498 renal,> 79.5 µM
same,GI50,786-0 renal,7.87 µM
same,TGI,786-0 renal,> 100 µM
same,GI50,SNB-75 CNS,1.28 µM
same,TGI,SNB-75 CNS,3.07 µM
same,GI50,NCI-H23 lung,2.28 µM
same,TGI,NCI-H23 lung,12.2 µM
same,GI50,HCC-2998 colon,2 µM
same,TGI,HCC-2998 colon,7.97 µM
same,GI50,SNB-19 CNS,2.09 µM
same,TGI,SNB-19 CNS,20.6 µM
same,GI50,T-47D breast,2.42 µM
same,TGI,T-47D breast,14.9 µM
same,GI50,UO-31 renal,> 83.8 µM
same,TGI,UO-31 renal,> 100 µM
same,GI50,K-562 leukemia,2.51 µM
same,TGI,K-562 leukemia,28.4 µM
same,GI50,EKVX NSCLC,7.97 µM
same,TGI,EKVX NSCLC,> 100 µM
same,GI50,KM12 colon,2.87 µM
same,TGI,KM12 colon,14.8 µM
same,GI50,HCT-15 colon,> 100 µM
same,TGI,HCT-15 colon,> 100 µM
same,GI50,HOP-92 NSCLC,2.57 µM
same,TGI,HOP-92 NSCLC,20 µM
same,GI50,NCI-H522 lung,3.91 µM
same,TGI,NCI-H522 lung,> 100 µM
same,GI50,SF-268 CNS,0.534 µM
same,TGI,SF-268 CNS,7.07 µM
same,GI50,RXF 393 renal,26.3 µM
same,TGI,RXF 393 renal,> 100 µM
same,GI50,UACC-62 melanoma,2 µM
same,TGI,UACC-62 melanoma,5.03 µM
same,GI50,MDA-MB-231 breast,13.3 µM
same,TGI,MDA-MB-231 breast,60 µM
same,GI50,SF-539 CNS,3.49 µM
same,TGI,SF-539 CNS,15.5 µM
same,GI50,SK-MEL-5 melanoma,2.11 µM
same,TGI,SK-MEL-5 melanoma,6.5 µM
same,GI50,OVCAR-5 ovarian,25.4 µM
same,TGI,OVCAR-5 ovarian,> 100 µM
same,GI50,OVCAR-3 ovarian,3.48 µM
same,TGI,OVCAR-3 ovarian,22.2 µM
same,GI50,CAKI-1 renal,> 59.8 µM
same,TGI,CAKI-1 renal,> 100 µM
same,GI50,HS 578T breast,2.76 µM
same,TGI,HS 578T breast,12.3 µM
same,GI50,CCRF-CEM leukemia,3.4 µM
same,TGI,CCRF-CEM leukemia,29.5 µM
same,GI50,NCI-H226 lung,8.7 µM
same,TGI,NCI-H226 lung,> 58.5 µM
same,GI50,ACHN renal,> 63.7 µM
same,TGI,ACHN renal,> 100 µM
